Test in all cases: NCI tumour cell line growth inhibition, 48 h
The test system of assay [1] is RXF 393 renal.
The subject of assay [2] is SF-295 CNS.
The subject of assay [3] is OVCAR-3 ovarian.
The test system of assay [4] is U251 CNS.
In assay [5] the test system is EKVX NSCLC.
In assay [6] the test system is SK-MEL-28 melanoma.
Assay [7] deals with UACC-62 melanoma.
The subject of assay [8] is LOX IMVI melanoma.
The subject of assay [9] is OVCAR-5 ovarian.

Among the data in PubChem BioAssay (NCI) are GI50 and TGI values, retold here.

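In this assay, cells in 96-well plates receive the compound at five concentrations for 48 hours. Endpoints are linearly interpolated between the surrounding concentrations. GI50: concentration for 50% inhibition of growth. TGI: total growth inhibition.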 A value given as a limit tells only on which side of the number the result lay.

As to `COc1ccc(C(=O)c2cc3c(N)c(C(=O)Nc4cccc(Cl)c4)sc3nc2C)cc1`, the GI50 in assay [1] is 0.655 µM; in [2] it was 1.08 µM; in assay [3] it was 1.01 µM; in assay [4], 1.38 µM; in assay [5] it was 2.06 µM; in assay [6] it was 3.03 µM. For the same compound, the values for the GI50 in [7], in assay [8] and in assay [9] were 1.12 µM, 2.39 µM and 1.69 µM, respectively. In addition, the TGI in assay [1] is 2.08 µM; in assay [2], > 33.3 µM; in [3] it was 3.12 µM; in assay [4], > 33.3 µM; in assay [5], > 33.3 µM; in assay [6], > 33.3 µM. For the same compound, the TGI in assay [7], in assay [8] and in [9] was > 33.3 µM in each case.

Take `COC(=O)C1=CC(=O)C(C(=O)Nc2ccc(OC)cc2)C(c2ccccc2)O1` (centres undefined): the TGI in assay [1] is 52.8 µM; in assay [2], 61.4 µM; in [3], 58.8 µM; in assay [4], 51.2 µM; in [5], > 100 µM; in [6] it was > 86.3 µM. The TGI in assay [7] is > 89.6 µM; in assay [8] it was > 72.9 µM; in assay [9], > 100 µM.

Turning to `O=c1[nH]nc(-c2ccccc2)c(-c2ccccc2)c1-n1nc(-c2ccccc2)c2ccccc2c1=O`, the TGI in assay [2], in [3], in [4], in assay [5], in assay [6] and in assay [7] was > 100 µM throughout. In addition, in assay [9], the TGI was > 100 µM.

`[N-]=[N+]=Nc1ccc(S(=O)(=O)Oc2cc(OS(=O)(=O)c3ccc(N=[N+]=[N-])cc3)cc(OS(=O)(=O)c3ccc(N=[N+]=[N-])cc3)c2)cc1`: the TGI in assay [1], in [2], in [3], in [4], in [5] and in assay [6] was > 100 µM throughout. Also, the TGI in [7], in [8] and in assay [9] was > 100 µM throughout.

Regarding `COC1CCC(=C2C(=O)OC(C)(C)OC2=O)N1` (centres undefined), the TGI in assay [1], in [2], in assay [4], in assay [5], in [6] and in [7] was > 100 µM throughout. For the same compound, the TGI in assay [8] and in assay [9] was > 100 µM each time.

On to `COC(=O)C1Cc2c([nH]c3ccccc23)[C@H](CC(C)C)N1` (some centres undefined), for which the TGI in [1], in assay [2], in [3], in assay [4], in assay [5] and in [6] was > 100 µM each time. Further, the TGI in [7], in assay [8] and in [9] was > 100 µM each time.

For `CC(=O)OC1COC(N2C(=O)C(=O)c3c(C)cc(Cl)nc32)C(OC(C)=O)C1OC(C)=O` (centres undefined), the TGI in assay [1], in assay [2], in assay [3], in assay [4], in assay [5] and in assay [6] was > 100 µM each time. In addition, the TGI in assay [7], in assay [8] and in assay [9] was > 100 µM each time.

As to `CC(=O)NNc1nc(C)c(C(/C=C/c2ccc(/C=C/C(=N\NC(=O)c3ccncc3)c3sc(NNC(C)=O)nc3C)cc2)=N/NC(=O)c2ccncc2)s1`, the TGI in [1], in assay [2], in assay [3], in assay [4], in assay [5] and in assay [6] was > 100 µM throughout. Also, the TGI in [7], in assay [8] and in [9] was > 100 µM in each case.

Turning to `CCCCNC(=S)Nn1c(-c2ccccc2)nc2ccccc2c1=O`, the TGI in assay [1], in assay [2], in assay [4], in assay [6], in assay [7] and in [8] was > 100 µM throughout. Moreover, the TGI in assay [9] was > 100 µM.

On to `COc1ccc(CN(O)C2C(CO)OC(n3cc(I)c(=O)[nH]c3=O)C2O)cc1` (centres undefined), for which the TGI in assay [1], in [2], in [3], in assay [4], in assay [5] and in assay [6] was > 100 µM each time. For the same compound, the TGI in assay [7], in [8] and in assay [9] was > 100 µM throughout.

`CC(=O)Oc1c(-c2ccccc2)[nH]c2cc([N+](=O)[O-])c(/C(Cl)=C/c3ccccc3)cc12`: the TGI was 22.5 µM in assay [2]; 46.8 µM in assay [3]; 19.8 µM in [4]; 59.3 µM in assay [5]; 25.2 µM in assay [6]; 19.6 µM in assay [7]. The TGI in assay [9] stood at 17.7 µM.

Take `C[N+](C)(C)CC(=O)N/N=C(/C=C/c1ccccc1)CC1OC(=O)c2ccccc21` (centres undefined): the TGI in [1] was > 100 µM; in assay [2] it was > 10 µM; in [4], > 100 µM; in [5] it was > 100 µM; in [6], > 100 µM; in assay [7], > 100 µM. The TGI in [8] and in [9] was > 10 µM in each case.

Consider `CC(C)c1ccc2c(c1)CCC1C(C)(C)[C@@H](O)CC[C@]21C` (some centres undefined), for which the TGI was 54.3 µM in [1]; 43.4 µM in assay [2]; > 100 µM in assay [3]; 52.2 µM in [4]; > 100 µM in [6]; > 100 µM in assay [7]. The TGI is 28.8 µM in assay [8] and 41.7 µM in assay [9].

Turning to `CC(C)NC(=O)OCc1nnn2c1C(OC(=O)NC(C)C)CC2` (centres undefined), the TGI in assay [1], in [2], in assay [3], in [4], in assay [5] and in [6] was > 100 µM each time. Also, the TGI in assay [7] and in assay [9] was > 100 µM throughout.

Regarding `Cc1ccc(S(=O)(=O)NCCCN(CCCNS(=O)(=O)c2ccc(C)cc2)S(=O)(=O)c2ccc(C)cc2)cc1`, the TGI in assay [1], in [2], in assay [3], in assay [4], in assay [6] and in assay [7] was > 100 µM each time. Further, in assay [8], the TGI is > 100 µM.

Consider `COCCNC(=O)C1C(=O)N(CCOC)C(=O)/C1=N/N` (centres undefined), for which the TGI in assay [2], in assay [3], in assay [4], in assay [5], in assay [6] and in [7] was > 100 µM throughout. Moreover, the TGI in assay [8] is > 100 µM.

For the compound `COc1ccc(C(=O)O/N=C2\CCCC\C2=C/c2ccccc2)cc1`, the TGI in assay [4], in assay [5], in [6], in assay [7] and in [8] was > 100 µM in each case.

With `CCCCN(CCCC)C(=Nc1ccccc1)N(CCCC)CCCC`, the TGI in assay [1] is 25.6 µM; in assay [2], 23.1 µM; in [3] it was 12.1 µM; in assay [4] it was 17.4 µM; in assay [5], 17.5 µM; in assay [6], 11.8 µM. The TGI turned out to be 13.6 µM in assay [8] and 27.8 µM in assay [9].

On to `c1ccc([CH2][Sn]([CH2]c2ccccc2)([S]c2cccc3cccnc23)[S]c2cccc3cccnc23)cc1`, for which the GI50 in assay [2] was 0.394 µM; in assay [3], 0.136 µM; in assay [4], 0.341 µM; in assay [5], 0.666 µM; in [6], 0.201 µM; in [7] it was 0.211 µM. In [8], the GI50 is 0.215 µM. Also, the TGI is 2.29 µM in assay [2]; 0.383 µM in assay [3]; 1.14 µM in assay [4]; 2.03 µM in assay [5]; 0.864 µM in assay [6]; 0.496 µM in assay [7]. In addition, the TGI in assay [8] was 0.442 µM.

Consider `Cc1c(C(=O)/C=C/c2ccco2)[n+](=O)c2ccccc2n1[O-]`, for which the TGI in [1], in assay [2], in [3], in assay [5], in assay [6] and in [7] was > 100 µM throughout. Besides, the TGI in assay [8] and in assay [9] was > 100 µM in each case.

On to `CN1CCC(O)C(CNC23CC4CC(CC(C4)C2)C3)C1` (centres undefined), for which the TGI in [1], in [2], in [4], in assay [5], in assay [7] and in assay [8] was > 100 µM in each case. Besides, the TGI in [9] was > 100 µM.

With `CCCOC(=O)C1CCC(=O)N1C(=O)C(Cl)Cl` (centres undefined), the TGI in [2], in assay [3], in assay [4], in assay [5], in assay [6] and in assay [7] was > 100 µM in each case. Besides, the TGI in [8] and in assay [9] was > 100 µM in each case.
